Assay results reported in US10654805B2, “Pyridinethiones, pharmaceutical compositions thereof, and their therapeutic use for treating a proliferative, inflammatory, neurodegenerative, or immune-mediated disease” (BioTheryX, Inc., priority 2016, dated 2020).

Assays:
C57/B6 mice = experiment: Cuprizone model of demyelination in mice: brain myelination scores; type: in vivo
Procedure: (§1) The ability of compound A1 to effect the demyelination process was evaluated in a cuprizone model of demyelination in mice. Thirty-six male C57/B6 mice aged 7-8 weeks were acclimated for 1 week prior to study commencement and housed 2 mice per cage. Mice in Group 1 received control chow without cuprizone, and all other mice were fed mouse diet containing 0.2% cuprizone for 5 weeks. Food was changed every other day, body and food weights were obtained daily. All cuprizone and control food was stored in vacuum containers and stored frozen until use.
(§2) Dosing solutions were prepared fresh on each day of dosing. Compound A1 was first dissolved in DMSO in a volume of 10% of the final volume, followed by addition of solutol HS-15 in a volume of 10% of the final volume and a solution of 10% hydroxypropyl-β-cyclodextrin in a volume of 80% of the final volume. Unless otherwise noted, all test articles were administered in a volume of 0.1 mL/10 g body weight.
(§3) During this process, mice received either vehicle or compound A1 at 50 mg/kg or 100 mg/kg via intraperitoneal injection daily. At the end of 5 weeks, the mice were sacrificed and the brain histology of each group compared to controls that had not received cuprizone. Statistical differences between treatment groups were determined using Mann-Whitney Rank Sum or ANOVA tests with a critical value of 0.05.
(§4) Evaluation of the myelin content of the brains was focused on three areas—the rostral corpus callosum, the dorsal corpus callosum and the cerebellum. The extent of demyelination in both sagittal sections was determined by a board certified veterinary pathologist blinded to animal treatment. Percent demyelination was scored as follows: demyelination ranging from 0 to 10% of the total anatomical structure was scored as 0; demyelination ranging from 11 to 30% of the total anatomical structure was scored as 1; demyelination ranging from 31 to 60% of the total anatomical structure was scored as 2; demyelination ranging from 61 to 90% of the total anatomical structure was scored as 3; and demyelination ranging from 91 to 100% of the total anatomical structure was scored as 4. The extent of MBP staining intensity was based on a 1-4 scale, where 4 was the highest level of staining seen (100%).

[1] = Cuprizone model in mice: body weight, deaths and toxicity; type: in vivo
Procedure: as §1, §2, §3
All animals were weighed every day in order to assess possible differences in animal weight among treatment groups as an indication of possible toxicity resulting from the treatments. Animals with a weight loss of more than 20% of their starting weight were euthanized. Mice with weight loss of more than 15% of their starting weight were not treated again until weight loss recovered to less than 5% of their starting weight. […] One animal in the cuprizone/vehicle group was also euthanized on Day 20 due to poor condition and weight loss. All remaining mice survived until the end of the study.

[2] = test system: myelin basic protein (MBP); experiment: Induction of myelin basic protein (MBP) production in MO3-13 cells, slot blot with anti-MBP antibody; type: cell-based, human; conditions: with and without cuprizone; for relative MBP binding compared with vehicle control: MO3-13 cells, p<0.0001, FIG. 2; for relative MBP binding (anti-MBP antibody): MO3-13 whole cell extracts
Procedure: Whole cell extracts of MO3-13 cells were prepared using 6 M urea. An aliquot of 100 μL was removed and diluted with an equal volume of 6 M urea. A 5 μL aliquot was removed and quantitated for protein levels. Total protein concentrations were determined using the BioRad protein assay method at 595 nm. Total protein in the whole cell extracts was determined and a ratio of recovered protein was used to calculate the relative amount of MBP in the whole cell extracts. Whole cell extracts were diluted to 0.1 mg/mL. Extracts containing 2.5 μg of protein were applied onto nitrocellulose membrane in a slot blotter using a vacuum method to draw the sample onto the membrane. The non-protein sites on the membrane were blocked with 2% ECL blocking reagent diluted in PBS-Tween20. Primary anti-Bovine MBP was diluted in the same block solution at 300×. The primary antibody was incubated one hour at room temperature with gentle shaking. The blot was developed using enhanced ECL (GE Healthcare) method. Image of bound antibody were captured using Image Lab software driving a Bio-Rad ChemiDoc XRS+ image capture system. The data was graphically represented using Graph Pad Prism software.

[3] = test system: myelin basic protein (MBP); experiment: Cuprizone model of demyelination in mice: MBP immunohistochemistry staining score; type: in vivo
Procedure: as §1, §2, §3, §4
In addition, immunohistochemistry was performed for myelin basic protein (MBP), and slides were analyzed for the intensity of MBP staining in the same regions. The mean rostral corpus callosum MBP staining score for the control groups was 4. In the vehicle treated group receiving cuprizone chow, the mean rostral corpus callosum m MBP staining score was 2.9. In the group receiving cuprizone chow and compound A1 at 50 mg/kg, the mean rostral corpus callosum MBP staining score was 3.2. Additional analysis of the rostral corpus callosum MBP staining was conducted using an ANOVA test.

## Cc1cc(C2CCCCC2)[nH]c(=S)c1 [compound A1, 6-cyclohexyl-4-methylpyridine-2(1H)-thione]
C57/B6 mice; 50 mg/kg IP QD, cuprizone chow 5 weeks, not significant
  mean cerebellar myelination score: 3.2
C57/B6 mice; 50 mg/kg IP QD, cuprizone chow 5 weeks, not significant vs vehicle
  mean rostral corpus callosum myelination score: 2.1
C57/B6 mice; 50 mg/kg IP QD, cuprizone chow 5 weeks, p=0.0012 vs vehicle
  mean caudal corpus callosum myelination score: 2.1
C57/B6 mice; cuprizone mice
  demyelination in the rostral corpus callosum vs vehicle treated group: no statistically significant differences
C57/B6 mice; cuprizone mice, p=0.0012
  demyelination in the dorsal corpus callosum vs mice receiving vehicle: significantly less demyelination
[1]; 50 mg/kg IP QD, cuprizone food, 5 weeks
  average loss of starting weight during the study: 10.6%
[1]; 50 mg/kg daily, cuprizone treatment
  toxicity: no evidence of toxicity beyond that seen in the vehicle group
[1]; 100 mg/kg IP QD, cuprizone food, between Days 20 and 24, despite discontinuation of dosing
  mice that suddenly started to lose weight and die: nine often mice
[2]
  relative MBP binding compared with vehicle control: significantly increased above vehicle control
  relative MBP binding (anti-MBP antibody): elevated relative MBP binding
[3]; 50 mg/kg IP QD, cuprizone chow 5 weeks, 1-4 scale, 4 highest, not significant
  mean cerebellum MBP staining score: 3.8
[3]; 50 mg/kg IP QD, cuprizone chow 5 weeks, 1-4 scale, 4 highest, not significant vs vehicle
  mean rostral corpus callosum MBP staining score: 3.2
[3]; 50 mg/kg IP QD, cuprizone chow 5 weeks, 1-4 scale, 4 highest, p=0.0064 vs vehicle
  mean caudal corpus callosum MBP staining score: 3.1
[3]; cuprizone mice
  MBP expression in the rostral corpus callosum vs vehicle treated group: no statistically significant differences
[3]; cuprizone mice, p=0.0064
  MBP expression in the dorsal corpus callosum vs mice receiving vehicle: significantly less demyelination

## Cc1cc(C(F)(F)F)cc(=S)[nH]1 [A3, 6-methyl-4-trifluoromethylpyridine-2(1H)-thione]
[2]
  relative MBP binding compared with vehicle control: significantly increased above vehicle control
  relative MBP binding (anti-MBP antibody): elevated relative MBP binding

## Cc1cc(CC(C)CC(C)(C)C)[nH]c(=S)c1 (stereo not drawn) [compound A2, 4-methyl-6-(2,4,4-trimethylpentyl)pyridine-2(1H)-thione]
[2]
  relative MBP binding (anti-MBP antibody): elevated relative MBP binding
